In US6548270B1, “DNA encoding human acid-sensing ion channel BNaC4 (ASIC4)” (Ortho-McNeil Pharmaceutical, Inc., priority 2000, dated 2003):

Key:
hASIC3 = target: T1, hASIC3 (Homo sapiens, UniProt Q9UHC3); conditions: 100 μM amiloride, Seguela and Babinski, 1999; cited from earlier work
T1 sequence (Q9UHC3 1-531): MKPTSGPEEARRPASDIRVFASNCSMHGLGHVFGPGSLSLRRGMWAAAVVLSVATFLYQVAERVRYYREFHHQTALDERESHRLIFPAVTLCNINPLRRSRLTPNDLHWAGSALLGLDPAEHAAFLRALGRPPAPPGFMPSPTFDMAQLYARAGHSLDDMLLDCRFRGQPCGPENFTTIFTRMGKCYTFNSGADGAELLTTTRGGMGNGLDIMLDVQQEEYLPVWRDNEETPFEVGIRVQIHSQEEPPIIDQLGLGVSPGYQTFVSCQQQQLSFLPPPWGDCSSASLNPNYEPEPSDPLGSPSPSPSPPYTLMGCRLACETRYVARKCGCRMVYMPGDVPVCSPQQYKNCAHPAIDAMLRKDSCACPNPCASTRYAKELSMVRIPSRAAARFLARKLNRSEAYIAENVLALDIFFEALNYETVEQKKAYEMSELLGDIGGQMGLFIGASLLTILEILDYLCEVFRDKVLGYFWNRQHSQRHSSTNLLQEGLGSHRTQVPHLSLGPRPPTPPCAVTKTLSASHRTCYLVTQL

human BNaC4 = target: T2, human BNaC4 (Homo sapiens, UniProt Q96FT7); assay: pH 4.5-elicited current in HEK293 cells transiently expressing human BNaC4 (whole cell patch clamp); format: cell-based; set-up: achieved by transfection of full-length human BNaC4 cDNA into a mammalian host cell; expressed in transfected cells; host or cells: HEK293, transient co-transfection of phBNaC4 (pCI Neo) and pEGFP; conditions: 500 uM amiloride; HEK293 cells transfected with hBNaC4; n=3
T2 sequence (Q96FT7 1-539): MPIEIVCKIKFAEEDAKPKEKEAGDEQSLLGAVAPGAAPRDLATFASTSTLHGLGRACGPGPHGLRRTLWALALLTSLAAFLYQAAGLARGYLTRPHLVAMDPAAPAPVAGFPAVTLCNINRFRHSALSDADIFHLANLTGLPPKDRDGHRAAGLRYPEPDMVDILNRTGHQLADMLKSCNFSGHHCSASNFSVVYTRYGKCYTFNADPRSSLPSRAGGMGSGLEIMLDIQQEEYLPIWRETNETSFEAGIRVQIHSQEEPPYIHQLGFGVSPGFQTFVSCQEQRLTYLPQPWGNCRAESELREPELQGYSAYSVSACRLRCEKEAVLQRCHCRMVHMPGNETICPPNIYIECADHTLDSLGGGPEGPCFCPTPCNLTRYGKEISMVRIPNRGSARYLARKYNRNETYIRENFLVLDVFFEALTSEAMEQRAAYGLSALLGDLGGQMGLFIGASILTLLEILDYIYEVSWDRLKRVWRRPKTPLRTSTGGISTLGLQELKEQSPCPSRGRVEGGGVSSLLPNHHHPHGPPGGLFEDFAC
Protocol: Human HEK293 cells were transfected with human BNaC4 (phBNaC4) together with the pEGFP vector (Clontech). Transient transfections 2 μg of phBNAC4 together with 1 μg pEGFP per 10^6 cells per 100 mm dish are performed using the Effectene transfection kit (Quiagen; 301425). Two to three days after transfection, cells are plated onto 12 mm round coverslips and maintained in growth media overnight. After one day, wells were tested for their whole cell response to application of low pH from nearby puffer pipettes using whole cell voltage clamp. Cells expressing GFP were tested (GFP-positive cells). Transfections with vector alone with GFP were used as controls (GFP-positive). […] The standard physiological saline (“Tyrodes”) contained: 130 mM NaCl, 4 mM KCl, 1 mM CaCl2, 1.2 mM MgCl2, and 10 mM hemi-Na-HEPES (pH 7.3, 295-300 mOsm as measured using a Wescor 5500 vapor-pressure (Wescor, Inc., Logan, Utah). Recording electrodes were fabricated from borosilicate capillary tubing (R6; Garner Glass, Claremont, Calif.), the tips are coated with dental periphery wax (Miles Laboratories, South Bend, Ind.), and have resistances of 1-2 MΩ when containing intracellular saline: 100 mM K-gluconate, 25 mM KCl, 0.483 mM CaCl2, 3 mM MgCl2, 10 mM hemi-Na-HEPES and 1 mM K4-BAPTA (100 nM free Ca^+2); pH 7.4, with dextrose added to achieve 290 mOsm). […]

block of the pH 4.5 effect (current elicited by pH 4.5) (human BNaC4): 98+/−2%
Compound: N=C(N)NC(=O)c1nc(Cl)c(N)nc1N [amiloride]
decrease of sustained current (hASIC3): sustained current by ˜30%; fast
